Data taken from patent US9579319B2 (Redx Pharma PLC, priority 2013, dated 2017).
pIC50: −log10 of the molar value.

test system: Hedgehog signalling pathway; assay: Gli-reporter NIH3T3 luciferase assay (Hedgehog pathway inhibition); assay type: cell-based; settings: NIH3T3; Gli-reporter NIH-3T3 cells, recombinant mouse sonic hedgehog, 24 hours, luminescence; read-out: Category (Hedgehog pathway inhibition activity, IC50)
Method: In vitro biological evaluation of compounds of the invention was carried out using the procedure detailed below. The procedure provides activity data for the compounds of the invention against the Hedgehog signalling pathway. The activity is represented as IC50 values in Table 12 below.
The Gli-reporter NIH3T3 cell line (BPS Biosciences) was grown according to the suppliers recommendations. Briefly, cells were maintained in growth medium (DMEM supplemented with 10% calf serum, 1% Penicillin/Streptomycin, and 500 µg/mL of Geneticin) and grown at 37° C., 5% CO2. In order to passage cells they were first rinsed with phosphate buffered saline before the addition of 0.05% Trypsin/EDTA. Fresh growth media was added and the cells were transferred to a centrifuge tube, spun and resuspended at an appropriate cell density.
Gli-reporter NIH-3T3 cells were seeded at 20,000 cells/well into 96 well, poly-D-lysine coated white clear bottomed full area TC plates in growth media (without geneticin). Three wells were left with just media as cell free controls. Cells were then incubated for 24 hours at 37° C. in a 5% CO2.
Serial dilutions of the test compounds were prepared in 100% DMSO. 10 μl of compound or DMSO from each well was pipetted into a sterile, 0.5 ml deep well conical bottomed 96 well plate (intermediate plate). 190 μl of warmed assay media (Opti-MEM supplemented with 0.5% calf serum, 1% non-essential amino acids, 1 mM sodium pyruvate, 10 mM HEPES, 1% penicillin/Streptomycin) was then added to each well and mixed five times at 180 μl by electronic pipette to ensure homogeneity of the compound solution. This 1:20 dilution gives a top concentration of 50 μM in 5% DMSO, 95% assay media. 10 μl was pipetted from each well of the intermediate plate into a second deep well sterile plate. 490 μl of warm assay media was then added to each well and mixed five times at 300 μl. This gives a final top concentration of 1 μM in 0.1% DMSO.
After the 24 hour incubation, media was carefully removed by pipette and replaced with 45 μl of compound dilutions in triplicate. This was incubated for one hour at 37° C. in a 5% CO2. After an hour, 5 μl 10 μg/mL recombinant mouse sonic hedgehog (R&D Systems) was added to each well and the plates were incubated for a further 24 hours at 37° C., 5% CO2.
After 24 hours, plates were removed from the incubator and left to acclimatise to room temperature for 20 minutes. 50 μl of OneGLO assay reagent (Promega) was then added to each well and the plates gently shaken for a further 30 minutes. Plates were then read for luminescence on the EnVision plate reader (PerkinElmer).

Structure (SMILES)	pIC50
Cn1nccc1-c1nnc(N2CCC(NC(=O)Nc3ccc(OC(F)F)cc3)CC2)c2ccccc12 [Example 26, 1-[4-(difluoromethoxy)phenyl]-3-[1-[4-(2-methylpyrazol-3-yl)phthalazin-1-yl]-4-piperidyl]urea]	> 8.00
Cn1nccc1-c1nnc(N2CCC(NC(=O)Nc3ccc(C(F)(F)F)cc3)CC2)c2ccccc12 [Example 14, 1-[1-[4-(2-methylpyrazol-3-yl)phthalazin-1-yl]-4-piperidyl]-3-[4-(trifluoromethyl)phenyl]urea]	> 8.00
Cn1nccc1-c1nnc(N2CCC(NCc3ccccc3OC(F)(F)F)CC2)c2ccccc12 [Example 36, 1-[4-(2-methylpyrazol-3-yl)phthalazin-1-yl]-N-[[2-(trifluoromethoxy)phenyl]methyl]piperidin-4-amine]	6.70 to 8.00
CSc1ccccc1CN(C)C1CCN(c2nnc(-c3ccnn3C)c3ccccc23)CC1 [Example 28, N-methyl-1-[4-(2-methylpyrazol-3-yl)phthalazin-1-yl]-N-[(2-methylsulfanylphenyl)methyl]piperidin-4-amine]	> 8.00
Cn1nccc1-c1nnc(N2CCC(NCc3ccc(Cl)cc3)CC2)c2ccccc12 [Example 35, N-[(4-chlorophenyl)methyl]-1-[4-(2-methylpyrazol-3-yl)phthalazin-1-yl]piperidin-4-amine]	6.70 to 8.00
Cn1nccc1-c1nnc(N2CCC(NC(=O)Nc3ccc(F)cc3C(F)(F)F)CC2)c2ccccc12 [Example 23, 1-[4-fluoro-2-(trifluoromethyl)phenyl]-3-[1-[4-(2-methylpyrazol-3-yl)phthalazin-1-yl]-4-piperidyl]urea]	> 8.00
Cn1nccc1-c1nnc(N2CCC(NC(=O)Nc3cccc(C#N)c3)CC2)c2ccccc12 [Example 22, 1-(3-cyanophenyl)-3-[1-[4-(2-methylpyrazol-3-yl)phthalazin-1-yl]-4-piperidyl]urea]	> 8.00
COc1ccccc1NC(=O)NC1CCN(c2nnc(-c3ccnn3C)c3ccccc23)CC1 [Example 15, 1-(2-methoxyphenyl)-3-[1-[4-(2-methylpyrazol-3-yl)phthalazin-1-yl]-4-piperidyl]urea]	> 8.00
Cn1nccc1-c1nnc(N2CCC(NC(=O)Nc3ccccc3C(F)(F)F)CC2)c2ccccc12 [Example 21, 1-[1-[4-(2-methylpyrazol-3-yl)phthalazin-1-yl]-4-piperidyl]-3-[2-(trifluoromethyl)phenyl]urea]	> 8.00
Cn1nccc1-c1nnc(N2CCC(NCc3ccc(F)nc3F)CC2)c2ccccc12 [Example 76, N-[(2,6-difluoro-3-pyridyl)methyl]-1-[4-(2-methylpyrazol-3-yl)phthalazin-1-yl]piperidin-4-amine]	6.70 to 8.00
Cc1c(-c2ccnn2C)nnc(N2CCC(N(C)Cc3ccc(F)cc3C(F)(F)F)CC2)c1C [Example 41, 1-[4,5-dimethyl-6-(2-methylpyrazol-3-yl)pyridazin-3-yl]-N-[[4-fluoro-2-(trifluoromethyl)phenyl]methyl]-N-methyl-piperidin-4-amine]	6.70 to 8.00
Cn1nccc1-c1nnc(N2CCC(NCc3cccc(C(F)(F)F)c3)CC2)c2ccccc12 [Example 39, 1-[4-(2-methylpyrazol-3-yl)phthalazin-1-yl]-N-[[3-(trifluoromethyl)phenyl]methyl]piperidin-4-amine]	6.70 to 8.00
CN(C1CCN(c2nnc(-c3ccnn3C)c3ccccc23)CC1)S(=O)(=O)c1ccc(F)cc1C(F)(F)F [Example 48, 4-fluoro-N-methyl-N-[1-[4-(2-methylpyrazol-3-yl)phthalazin-1-yl]-4-piperidyl]-2-(trifluoromethyl)benzenesulfonamide]	> 8.00
CCOc1ccccc1CNC1CCN(c2nnc(-c3ccnn3C)c3ccccc23)CC1 [Example 52, N-[(2-ethoxyphenyl)methyl]-1-[4-(2-methylpyrazol-3-yl)phthalazin-1-yl]piperidin-4-amine]	6.70 to 8.00
CN(Cc1ccccc1F)C1CCN(c2nnc(-c3ccnn3C)c3ccccc23)CC1 [Example 64, (2-fluorophenyl)methyl-methyl-[1-[4-(2-methylpyrazol-3-yl)phthalazin-1-yl]-4-piperidyl]ammonium]	6.70 to 8.00
Cn1nccc1-c1nnc(N2CCC(NCc3ccccc3)CC2)c2ccccc12 [Example 57, N-benzyl-1-[4-(2-methylpyrazol-3-yl)phthalazin-1-yl]piperidin-4-amine]	5.70 to 6.70
Cn1nccc1-c1nnc(N2CCC(NCc3ccc(F)cc3Cl)CC2)c2ccccc12 [Example 19, N-[(2-chloro-4-fluoro-phenyl)methyl]-1-[4-(2-methylpyrazol-3-yl)phthalazin-1-yl]piperidin-4-amine]	6.70 to 8.00
Cn1nccc1-c1nnc(N2CCC(NS(=O)(=O)c3ccc(F)cc3C(F)(F)F)CC2)c2ccccc12 [Example 50, 4-fluoro-N-[1-[4-(2-methylpyrazol-3-yl)phthalazin-1-yl]-4-piperidyl]-2-(trifluoromethyl)benzenesulfonamide]	> 8.00

same assay, conditions: NIH3T3; Gli-reporter NIH-3T3 cells, recombinant mouse sonic hedgehog, 24 hours, luminescence; read-out: Gli Luc nM (IC50)

Structure (SMILES)	IC50
Cn1nccc1-c1nnc(N2CCC(NC(=O)Nc3ccc(C(F)(F)F)cc3)CC2)c2ccccc12 [Example 14, 1-[1-[4-(2-methylpyrazol-3-yl)phthalazin-1-yl]-4-piperidyl]-3-[4-(trifluoromethyl)phenyl]urea]	0.71 nM
Cn1nccc1-c1nnc(N2CCC(NC(=O)Nc3ccc(F)cc3C(F)(F)F)CC2)c2ccccc12 [Example 23, 1-[4-fluoro-2-(trifluoromethyl)phenyl]-3-[1-[4-(2-methylpyrazol-3-yl)phthalazin-1-yl]-4-piperidyl]urea]	0.66 nM
Cn1nccc1-c1nnc(N2CCC(NS(=O)(=O)c3ccc(F)cc3C(F)(F)F)CC2)c2ccccc12 [Example 50, 4-fluoro-N-[1-[4-(2-methylpyrazol-3-yl)phthalazin-1-yl]-4-piperidyl]-2-(trifluoromethyl)benzenesulfonamide]	1.79 nM

same assay, conditions: NIH3T3; Gli-reporter NIH-3T3 cells, recombinant mouse sonic hedgehog, 24 hours, luminescence; read-out: Gli luc IC50

Structure (SMILES)	pIC50
CN(Cc1cccc(C#N)c1)C1CCN(c2nnc(-c3ccnn3C)c3ccccc23)CC1 [Example 168, 3-[[methyl-[1-[4-(2-methylpyrazol-3-yl)phthalazin-1-yl]-4-piperidyl]amino]methyl]benzonitrile]	6.70 to 8.00
Cc1c(-c2ccnn2C)nnc(N2CCC(N(C)Cc3ccnnc3)CC2)c1C [Example 90, 1-[4,5-dimethyl-6-(2-methylpyrazol-3-yl)pyridazin-3-yl]-N-methyl-N-(pyridazin-4-ylmethyl)piperidin-4-amine]	< 6.70
Cn1nccc1-c1nnc(N2CCC(NCc3ccc(F)c(C#N)c3)CC2)c2c1CCC2 [Example 128, 2-fluoro-5-[[[1-[1-(2-methylpyrazol-3-yl)-6,7-dihydro-5H-cyclopenta[d]pyridazin-4-yl]-4-piperidyl]amino]methyl]benzonitrile]	< 6.70
Cn1nccc1-c1nnc(N2CCC(NC(=O)NC(C)(C)C)CC2)c2c1CCC2 [Example 161, 1-tert-butyl-3-[1-[1-(2-methylpyrazol-3-yl)-6,7-dihydro-5H-cyclopenta[d]pyridazin-4-yl]-4-piperidyl]urea]	6.70 to 8.00
CN(Cc1ccc(F)cc1C(F)(F)F)C1CCN(c2nnc(-c3ccnn3C)c3ncccc23)CC1 [Example 130, N-[[4-fluoro-2-(trifluoromethyl)phenyl]methyl]-N-methyl-1-[8-(2-methylpyrazol-3-yl)pyrido[2,3-d]pyridazin-5-yl]piperidin-4-amine]	< 6.70
CSc1nccc(CN(C)C2CCN(c3nnc(-c4ccnn4C)c(C)c3C)CC2)n1 [Example 93, 1-[4,5-dimethyl-6-(2-methylpyrazol-3-yl)pyridazin-3-yl]-N-methyl-N-[(2-methylsulfanylpyrimidin-4-yl)methyl]piperidin-4-amine]	< 6.70
CN(C(=O)Nc1ccc(F)cc1C(F)(F)F)C1CCN(c2nnc(-c3ccnn3C)c3ncccc23)CC1 [Example 80, 3-[4-fluoro-2-(trifluoromethyl)phenyl]-1-methyl-1-[1-[8-(2-methylpyrazol-3-yl)pyrido[2,3-d]pyridazin-5-yl]-4-piperidyl]urea]	> 8.00
CN(Cc1ccncn1)C1CCN(c2nnc(-c3ccnn3C)c3ccccc23)CC1 [Example 86, N-methyl-1-[4-(2-methylpyrazol-3-yl)phthalazin-1-yl]-N-(pyrimidin-4-ylmethyl)piperidin-4-amine]	< 6.70
CN(Cc1ccccc1OC(F)(F)F)C1CCN(c2nnc(-c3ccnn3C)c3ccccc23)CC1 [Example 162, N-methyl-1-[4-(2-methylpyrazol-3-yl)phthalazin-1-yl]-N-[[2-(trifluoromethoxy)phenyl]methyl]piperidin-4-amine]	> 8.00
Cc1c(-c2ccnn2C)nnc(N2CCC(N(C)Cc3ccccc3[N+](=O)[O-])CC2)c1C [Example 81, 1-[4,5-dimethyl-6-(2-methylpyrazol-3-yl)pyridazin-3-yl]-N-methyl-N-[(2-nitrophenyl)methyl]piperidin-4-amine]	> 8.00
Cn1nccc1-c1nnc(N2CCC(NC(=O)Nc3ccc(OC(F)(F)F)cc3)CC2)c2ccccc12 [Example 167, 1-[1-[4-(2-methylpyrazol-3-yl)phthalazin-1-yl]-4-piperidyl]-3-[4-(trifluoromethoxy)phenyl]urea]	> 8.00
